Publication PMC8848768, “Synthesis and evaluation of potent yaku'amide A analogs” (Chemical Science, 2022)
Numbered stars: 1 amine (or outer) side, 2 acyl side, 3 side chain; on linkers, the order of the positions; unused ones are H or OH. Square brackets hold non-standard residues; d marks the D form. Peptide text beside a SMILES is read from it. * marks the point of attachment. Heptanoyl(3-oxo-2,2,4S,6-Me) = CC(C)C[C@H](C)C(=O)C(C)(C)C(=O)*; NH((S)-1-NMe2-3-Me-but-2-yl) = CC(C)[C@@H](CN(C)C)N*; Ile(3R-OH) = CC[C@@](C)(O)[C@H](N)C(=O)O; dVal(3-OH) = CC(C)(O)[C@@H](N)C(=O)O; d(aIle) = CC[C@H](C)[C@@H](N)C(=O)O; Val(3-OH) = CC(C)(O)[C@H](N)C(=O)O; X1 = CCC(CC)=C(N[*:1])C(=O)[*:2]; NHCH2CH2NMe2 = CN(C)CCN*; ΔVal = CC(C)=C(N)C(=O)O

Legend:
MCF7 = MCF7 (Breast Carcinoma), MTS, 72 hours, 37 °C, 5% CO2, 384-well, n>2 independent studies (in duplicate); for IC50: read-out: Aver IC50, MCF7
Description: (§1) The antiproliferative activity profiles of 1a, its full-length analogs 2a and 2b, and its partial structures (23, 24, 26, and 30) were determined by in vitro screening in 72 hours MTS cell proliferation assays against a panel of 18 different human cancer cell lines. […] The three peptides were also evaluated for their antiproliferative activity against the lung fibroblast MRC5 cell line.
(§2) Cells (40 µ L) are added into individual wells of a 384-well black/clear bottom plate on day zero at concentrations enabling continuous log growth over the course of the assay. On day one, compounds (or DMSO) are transferred using an ATS-liquid handler (100 nL per well) to individual wells containing cells and the cells are treated for 72 hours (37 °C, 5% CO 2) prior to measuring proliferation using MTS reagent following manufacturer’s instructions. Net OD values are determined by subtracting the average OD values of cells (measured on day 1, T = 0) from average total OD value of cells (measured on day 4, T = 72h). IC 50 values are calculated using proprietary software (IC 50 values normalized against all compounds). Results represent n>2 independent studies (in duplicate).
(§3) Table S1. Antiproliferative Data of Compounds 1a, 2a, 2b, 23, 24, 26, and 30.
(§4) Table S2. Human Cell Line Descriptions.
(§5) Human Cell Line* Description
(§6) *All cells were obtained from ATCC and are authenticated

NCIH1048 = experiment: cells; settings: read-out: Aver IC50, NCIH1048; NCIH1048 (Lung - SCLC); MTS, 72 hours, 37 °C, 5% CO2, 384-well; n>2 independent studies (in duplicate)
Description: as §1, §2, §3, §4, §5, §6

OVCAR3 = experiment: cells; settings: read-out: Aver IC50, OVCAR3; OVCAR3 (Ovary - Adenocarcinoma); MTS, 72 hours, 37 °C, 5% CO2, 384-well; n>2 independent studies (in duplicate)
Description: as §1, §2, §3, §4, §5, §6

CALU6 = experiment: cells; settings: read-out: Aver IC50, CALU6; CALU6 (Lung - Adenocarcinoma); MTS, 72 hours, 37 °C, 5% CO2, 384-well; n>2 independent studies (in duplicate)
Description: as §1, §2, §3, §4, §5, §6

A549 = experiment: cells; settings: read-out: Aver IC50, A549; A549 (Lung - NSCLC); MTS, 72 hours, 37 °C, 5% CO2, 384-well; n>2 independent studies (in duplicate)
Description: as §1, §2, §3, §4, §5, §6

BXPC3 = experiment: cells; settings: read-out: Aver IC50, BXPC3; BXPC3 (Pancreatic - Adenocarcinoma); MTS, 72 hours, 37 °C, 5% CO2, 384-well; n>2 independent studies (in duplicate)
Description: as §1, §2, §3, §4, §5, §6

JURKAT = experiment: cells; settings: read-out: Aver IC50, JURKAT; JURKAT (acute T-cell leukemia); MTS, 72 hours, 37 °C, 5% CO2, 384-well; n>2 independent studies (in duplicate)
Description: as §1, §2, §3, §4, §5, §6

[1] = test system: lung fibroblast MRC5 cell line; experiment: cells; settings: read-out: Aver IC50, MRC5; MRC5 (Lung Fibroblast, noncancerous); MTS, 72 hours, 37 °C, 5% CO2, 384-well; n>2 independent studies (in duplicate)
Description: as §1, §2, §3, §4, §5, §6

THP1 = experiment: cells; settings: read-out: Aver IC50, THP1; THP1 (Acute Monocytic Leukemia); MTS, 72 hours, 37 °C, 5% CO2, 384-well; n>2 independent studies (in duplicate)
Description: as §1, §2, §3, §4, §5, §6

MV411 = experiment: cells; settings: read-out: Aver IC50, MV411; MV411 (Acute Myeloid Leukemia); MTS, 72 hours, 37 °C, 5% CO2, 384-well; n>2 independent studies (in duplicate)
Description: as §1, §2, §3, §4, §5, §6

RAMOS = experiment: cells; settings: read-out: Aver IC50, RAMOS; RAMOS (Burkitt's lymphoma); MTS, 72 hours, 37 °C, 5% CO2, 384-well; n>2 independent studies (in duplicate)
Description: as §1, §2, §3, §4, §5, §6

U937 = experiment: cells; settings: read-out: Aver IC50, U937; U937 (Pro-monocytic, Human Myeloid Leukemia); MTS, 72 hours, 37 °C, 5% CO2, 384-well; n>2 independent studies (in duplicate)
Description: as §1, §2, §3, §4, §5, §6

COLO678 = experiment: cells; settings: read-out: Aver IC50, COLO678; COLO678 (Colon Carcinoma); MTS, 72 hours, 37 °C, 5% CO2, 384-well; n>2 independent studies (in duplicate)
Description: as §1, §2, §3, §4, §5, §6

A375 = experiment: cells; settings: read-out: Aver IC50, A375; A375 (Malignant Melanoma); MTS, 72 hours, 37 °C, 5% CO2, 384-well; n>2 independent studies (in duplicate)
Description: as §1, §2, §3, §4, §5, §6

HL60 = experiment: cells; settings: read-out: Aver IC50, HL60; HL60 (Leukema - Promyelocytic); MTS, 72 hours, 37 °C, 5% CO2, 384-well; n>2 independent studies (in duplicate)
Description: as §1, §2, §3, §4, §5, §6

PANC1005 = experiment: cells; settings: read-out: Aver IC50, PANC1005; PANC1005 (Pancreatic - Adenocarcinoma); MTS, 72 hours, 37 °C, 5% CO2, 384-well; n>2 independent studies (in duplicate)
Description: as §1, §2, §3, §4, §5, §6

HCT116 = experiment: cells; settings: read-out: Aver IC50, HCT116; HCT116 (Colon Carcinoma); MTS, 72 hours, 37 °C, 5% CO2, 384-well; n>2 independent studies (in duplicate)
Description: as §1, §2, §3, §4, §5, §6

SNUC1 = experiment: cells; settings: read-out: Aver IC50, SNUC1; SNUC1 (Colon Carcinoma); MTS, 72 hours, 37 °C, 5% CO2, 384-well; n>2 independent studies (in duplicate)
Description: as §1, §2, §3, §4, §5, §6

HT29 = experiment: cells; settings: read-out: Aver IC50, HT29; HT29 (Colon Carcinoma); MTS, 72 hours, 37 °C, 5% CO2, 384-well; n>2 independent studies (in duplicate)
Description: as §1, §2, §3, §4, §5, §6

[2] = test system: panel of 18 different human cancer cell lines; experiment: 72 h MTS cell proliferation assays, panel of cancer cell lines; assay type: cell-based; settings: against most of the cell lines, ca.
Description: as §1, §2, §3, §4, §5, §6

[3] = test system: P388 murine leukemia cells; settings: cited from earlier work
Excerpt: The linear peptide yaku'amide A (1a, Fig. 1) was isolated by Matsunaga and co-workers from the deep-sea sponge Ceratopsion sp.[1] It contains several unusual β-tert-hydroxy amino acids (β-OHAAs) and tetrasubstituted dehydroamino acids (ΔAAs).

Compound | IC50 (MCF7) [nM] | IC50 (NCIH1048) [nM] | IC50 (OVCAR3) [nM] | IC50 (CALU6) [nM] | IC50 (A549) [nM] | IC50 (BXPC3) [nM] | IC50 (JURKAT) [nM] | IC50 [1] [nM] | IC50 (THP1) [nM] | IC50 (MV411) [nM] | IC50 (RAMOS) [nM] | IC50 (U937) [nM] | IC50 (COLO678) [nM] | IC50 (A375) [nM] | IC50 (HL60) [nM] | IC50 (PANC1005) [nM] | IC50 (HCT116) [nM] | IC50 (SNUC1) [nM] | IC50 (HT29) [nM] | other results
CCC(CC)=C(NC(=O)CNC(=O)C(NC(=O)[C@@H](NC(=O)C(C)(C)C(=O)[C@@H](C)CC(C)C)[C@](C)(O)CC)=C(C)C)C(=O)N[C@@H](C(=O)N[C@@H](C(=O)N[C@@H](C(=O)N[C@H](C(=O)NC(C(=O)N[C@H](C)C(=O)N[C@@H](C(=O)N[C@H](C(=O)NC(C(=O)N[C@H](CN(C)C)C(C)C)=C(C)C)C(C)C)C(C)C)=C(C)C)C(C)(C)O)C(C)(C)O)[C@@H](C)CC)C(C)C [Compound 2b] ({Heptanoyl(3-oxo-2,2,4S,6-Me)}-[Ile(3R-OH)][ΔVal]G[X1][dV][d(aIle)][dVal(3-OH)][Val(3-OH)][ΔVal][dA][dV]V[ΔVal]-{NH((S)-1-NMe2-3-Me-but-2-yl)}) | 13000 | 2370 | 186 | 1000 | 249 | 9310 | 13400 | 17500 | 9690 | 48.8 | 1200 | 947 | 6500 | 254 | 465 | 8810 | 4260 | 58.3 | 5250 | 
CCC(CC)=C(NC(=O)CNC(=O)C(NC(=O)[C@@H](NC(=O)C(C)(C)C(=O)[C@@H](C)CC(C)C)[C@](C)(O)CC)=C(C)C)C(=O)N[C@@H](C(=O)N[C@@H](C(=O)N[C@@H](C(=O)N[C@H](C(=O)NC(C(=O)N[C@H](C)C(=O)NCCN(C)C)=C(C)C)C(C)(C)O)C(C)(C)O)[C@@H](C)CC)C(C)C [Compound 30] ({Heptanoyl(3-oxo-2,2,4S,6-Me)}-[Ile(3R-OH)][ΔVal]G[X1][dV][d(aIle)][dVal(3-OH)][Val(3-OH)][ΔVal][dA]-NHCH2CH2NMe2) | 12600 | > 25000 | 12600 | > 25000 | 20600 | > 25000 | 22800 | > 25000 | > 25000 | 2700 | 24300 | > 25000 | > 25000 | 24700 | 20000 | > 25000 | > 25000 | 20600 | > 25000 | 
CCC(CC)=C(NC(=O)[C@@H](NC(=O)C(C)(C)C(=O)[C@@H](C)CC(C)C)[C@](C)(O)CC)C(=O)NCC(=O)NC(C(=O)N[C@@H](C(=O)N[C@@H](C(=O)N[C@@H](C(=O)N[C@H](C(=O)NC(C(=O)N[C@H](C)C(=O)N[C@@H](C(=O)N[C@H](C(=O)NC(C(=O)N[C@H](CN(C)C)C(C)C)=C(C)C)C(C)C)C(C)C)=C(C)C)C(C)(C)O)C(C)(C)O)[C@@H](C)CC)C(C)C)=C(C)C [Compound 2a] ({Heptanoyl(3-oxo-2,2,4S,6-Me)}-[Ile(3R-OH)][X1]G[ΔVal][dV][d(aIle)][dVal(3-OH)][Val(3-OH)][ΔVal][dA][dV]V[ΔVal]-{NH((S)-1-NMe2-3-Me-but-2-yl)}) | 13000 | 1310 | 81.4 | 578 | 86.5 | 3900 | 4210 | 5470 | 9190 | 20.8 | 362 | 435 | 2010 | 1510 | 370 | 1970 | 1130 | 34.4 | 2270 | Increased potency compared to 2b [2]: 2–4 fold
yaku'amide A [Compound 1a, reference compound] | 125 | 3110 | 227 | 2220 | 108 | 3820 | 4950 | 14500 | 9290 | 119 | 975 | 1210 | 2690 | 2140 | 578 | 2830 | 1740 | 129 | 2890 | IC50, growth inhibition of P388 murine leukemia cells [3]: 0.014 µg/mL; Aver IC50, MCF7 (MCF7): potent
